The test system of this experiment is fibrin accumulation. Nature of the experiment: Microfluidic whole blood flow assay over collagen/tissue factor reaction zone, fibrin signal, drug spiked in vitro. The format is cell-based, human. The note with it: blood sample treated with different doses, in relation to HBS control; 37° C. and 21° C.; FIGS. 17C-17D.

Source text: The drug in question can be mixed with a small bolus of patient blood outside the device (in vitro), and the drug spiked blood then analyzed on the system. […] Fresh whole blood (used within minutes of venous draw), AF594 fibrinogen (fibrinogen from human plasma, Alexa FluorTM 594 conjugate) and platelet MCA2588A488 (mouse anti-human CD61, Alexa FluorTM 488 conjugate) can be added to the device 100 and the direct fluorescence signals can be analyzed. […] The result is the production of direct fluorescent signals in green (platelets) and red (fibrin) where the measured fluorescent intensity (FI) directly correlates with the accumulation of platelets and fibrin. The fluorescent signal intensity can be directly measured at each clot site over time to produce clot response curves for both fibrin and platelets. Fluorescence signal (intensity) can be extracted for each clot and plotted for each assay condition. Two signals are generated in the test as fluorescence intensity (FI) for fibrin and platelets accumulating in the region of interest on the device. […] The optimal time at which to select data for analyses is generally determined to be the time of the maximum rate of stable signal development, which typically corresponds to the half-max or T50 time point of the assay.

Regarding `O=C(NC[C@H]1CN(c2ccc(N3CCOCC3=O)cc2)C(=O)O1)c1ccc(Cl)s1` [Rivaroxaban], the “fibrin signal with increasing dose” value is “decreases”.

These data come from patent publication US12578350B2, “System and method for coagulation and platelet function related data collection and analysis” (FloBio LLC, priority 2024, dated 2026).
